# ChEMBL document CHEMBL3352542, “Synthesis, biological evaluation and molecular modeling study of 2-(1,3,4-thiadiazolyl-thio and 4-methyl-thiazolyl-thio)-quinazolin-4-ones as a new class of DHFR inhibitors” (Bioorg Med Chem Lett, 2014)
# Calls of active or inactive are those of the source. The rule behind the calls is not given here.
# Tests used:
# NCI/ADR-RES = assay: Growth inhibition of human NCI-ADR-RES cells at 10 uM after 48 hrs; assay type: functional
# NCI-H23 = assay: Growth inhibition of human NCI-H23 cells at 10 uM after 48 hrs; assay type: functional
# UO-31 = assay: (§1) Growth inhibition of human UO31 cells at 10 uM after 48 hrs; assay type: functional
# TK-10 = assay: Growth inhibition of human TK10 cells at 10 uM after 48 hrs; assay type: functional
# T47D = assay: Growth inhibition of human T47D cells at 10 uM after 48 hrs; assay type: functional
# NCI-H522 = assay: Growth inhibition of human NCI-H522 cells at 10 uM after 48 hrs; assay type: functional
# Escherichia coli = assay: Antimicrobial activity against Escherichia coli assessed as inhibition zone at 200 ug/disk after 24 hrs by disc-diffusion method; assay type: functional; details: read-out: IZ
# HCC 2998 = assay: Growth inhibition of human HCC2998 cells at 10 uM after 48 hrs; assay type: functional
# SF-268 = assay: Growth inhibition of human SF268 cells at 10 uM after 48 hrs; assay type: functional
# MDA-MB-231 = assay: Growth inhibition of human MDA-MB-231 cells at 10 uM after 48 hrs; assay type: functional
# RPMI-8226 = assay: Growth inhibition of human RPMI8226 cells at 10 uM after 48 hrs; assay type: functional
# NCI-H226 = assay: Growth inhibition of human NCI-H226 cells at 10 uM after 48 hrs; assay type: functional
# OVCAR-3 = assay: Growth inhibition of human OVCAR3 cells at 10 uM after 48 hrs; assay type: functional
# NCI-H460 = assay: Growth inhibition of human NCI-H460 cells at 10 uM after 48 hrs; assay type: functional
# SN12C = assay: Growth inhibition of human SN12C cells at 10 uM after 48 hrs; assay type: functional
# SR = assay: Growth inhibition of human SR cells at 10 uM after 48 hrs; assay type: functional
# 786-0 = assay: Growth inhibition of human 786-0 cells at 10 uM after 48 hrs; assay type: functional
# MDA-MB-468 = assay: Growth inhibition of human MDA-MB-468 cells at 10 uM after 48 hrs; assay type: functional
# UACC-62 = assay: Growth inhibition of human UACC62 cells at 10 uM after 48 hrs; assay type: functional
# HOP-92 = assay: (§2) Growth inhibition of human HOP92 cells at 10 uM after 48 hrs; assay type: functional
# OVCAR-4 = assay: Growth inhibition of human OVCAR4 cells at 10 uM after 48 hrs; assay type: functional
# MCF7 = assay: Growth inhibition of human MCF7 cells at 10 uM after 48 hrs; assay type: functional; details: for inhibition of growth at 10 µM: MCF7, 48 h, read-out: GI
# MOLT-4 = assay: Growth inhibition of human MOLT4 cells at 10 uM after 48 hrs; assay type: functional
# KM12 = assay: Growth inhibition of human KM12 cells at 10 uM after 48 hrs; assay type: functional
# K562 = assay: Growth inhibition of human K562 cells at 10 uM after 48 hrs; assay type: functional
# HT-29 = assay: Growth inhibition of human HT-29 cells at 10 uM after 48 hrs; assay type: functional
# SK-MEL-5 = assay: Growth inhibition of human SK-MEL-5 cells at 10 uM after 48 hrs; assay type: functional
# Malme-3M = assay: Growth inhibition of human MALME-3M cells at 10 uM after 48 hrs; assay type: functional
# UACC-257 = assay: Growth inhibition of human UACC257 cells at 10 uM after 48 hrs; assay type: functional
# Bacillus subtilis = assay: Antimicrobial activity against Bacillus subtilis assessed as inhibition zone at 200 ug/disk after 24 hrs by disc-diffusion method; assay type: functional; details: read-out: IZ
# BT-549 = assay: Growth inhibition of human BT549 cells at 10 uM after 48 hrs; assay type: functional
# SNB-19 = assay: Growth inhibition of human SNB19 cells at 10 uM after 48 hrs; assay type: functional
# A498 = assay: Growth inhibition of human A498 cells at 10 uM after 48 hrs; assay type: functional
# SNB-75 = assay: Growth inhibition of human SNB75 cells at 10 uM after 48 hrs; assay type: functional
# SF-295 = assay: (§3) Growth inhibition of human SF295 cells at 10 uM after 48 hrs; assay type: functional
# CCRF-CEM = assay: Growth inhibition of human CCRF-CEM cells at 10 uM after 48 hrs; assay type: functional
# U-251 = assay: Growth inhibition of human U251 cells at 10 uM after 48 hrs; assay type: functional
# PC-3 = assay: (§4) Growth inhibition of human PC3 cells at 10 uM after 48 hrs; assay type: functional
# Candida albicans = assay: Antimicrobial activity against Candida albicans assessed as inhibition zone at 200 ug/disk after 24 hrs by disc-diffusion method; assay type: functional; details: read-out: IZ
# Staphylococcus aureus = assay: Antimicrobial activity against Staphylococcus aureus assessed as inhibition zone at 200 ug/disk after 24 hrs by disc-diffusion method; assay type: functional; details: read-out: IZ
# MDA-MB-435 = assay: Growth inhibition of human MDA-MB-435 cells at 10 uM after 48 hrs; assay type: functional
# M14 = assay: Growth inhibition of human M14 cells at 10 uM after 48 hrs; assay type: functional
# Hs-578T = assay: Growth inhibition of human Hs 578T cells at 10 uM after 48 hrs; assay type: functional
# CAKI-1 = assay: Growth inhibition of human CAKI-1 cells at 10 uM after 48 hrs; assay type: functional
# ACHN = assay: Growth inhibition of human ACHN cells at 10 uM after 48 hrs; assay type: functional
# HCT-116 = assay: Growth inhibition of human HCT116 cells at 10 uM after 48 hrs; assay type: functional
# RXF 393 = assay: Growth inhibition of human RXF393 cells at 10 uM after 48 hrs; assay type: functional
# Pseudomonas aeruginosa = assay: Antimicrobial activity against Pseudomonas aeruginosa assessed as inhibition zone at 200 ug/disk after 24 hrs by disc-diffusion method; assay type: functional; details: read-out: IZ
# HCT-15 = assay: Growth inhibition of human HCT15 cells at 10 uM after 48 hrs; assay type: functional
# A549 = assay: Growth inhibition of human A549 cells at 10 uM after 48 hrs; assay type: functional
# Dihydrofolate reductase = target: T1, Dihydrofolate reductase (Bos taurus, UniProt P00376); assay: Inhibition of bovine liver DHFR
# T1 sequence (P00376 whole entry): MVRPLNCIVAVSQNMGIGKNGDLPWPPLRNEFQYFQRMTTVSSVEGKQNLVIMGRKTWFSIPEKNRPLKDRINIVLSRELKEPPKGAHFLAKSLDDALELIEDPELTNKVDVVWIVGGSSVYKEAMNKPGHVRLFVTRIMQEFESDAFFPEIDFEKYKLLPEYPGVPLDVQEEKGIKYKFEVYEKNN
# COLO 205 = assay: Growth inhibition of human COLO205 cells at 10 uM after 48 hrs; assay type: functional
# OVCAR-5 = assay: Growth inhibition of human OVCAR5 cells at 10 uM after 48 hrs; assay type: functional
# OVCAR-8 = assay: Growth inhibition of human OVCAR8 cells at 10 uM after 48 hrs; assay type: functional
# SW-620 = assay: Growth inhibition of human SW620 cells at 10 uM after 48 hrs; assay type: functional
# SF-539 = assay: Growth inhibition of human SF539 cells at 10 uM after 48 hrs; assay type: functional
# HL-60(TB) = assay: Growth inhibition of human HL-60(TB) cells at 10 uM after 48 hrs; assay type: functional
# LOX IMVI = assay: Growth inhibition of human LOXIMVI cells at 10 uM after 48 hrs; assay type: functional
# [1] = as §1; assay type: functional; details: UO-31, 48 h, read-out: GI
# [2] = as §2; assay type: functional; details: HOP-92, 48 h, read-out: GI
# [3] = as §3; assay type: functional; details: SF-295, 48 h, read-out: GI
# [4] = as §4; assay type: functional; details: PC-3, 48 h, read-out: GI
compound,measurement,setting,value
Cc1nc(N)sc1Sc1nc2ccc(Cl)cc2c(=O)n1-c1ccc(Cl)cc1,growth inhibition (GI),NCI/ADR-RES,inactive
same,growth inhibition (GI),NCI-H23,inactive
same,growth inhibition (GI),UO-31,inactive
same,growth inhibition (GI),TK-10,inactive
same,growth inhibition (GI),T47D,inactive
same,growth inhibition (GI),NCI-H522,inactive
same,zone of inhibition at 200 µg/disc,Escherichia coli,8 mm
same,growth inhibition (GI),HCC 2998,inactive
same,growth inhibition (GI),SF-268,inactive
same,growth inhibition (GI),MDA-MB-231,inactive
same,growth inhibition (GI),RPMI-8226,inactive
same,growth inhibition (GI),NCI-H226,inactive
same,growth inhibition (GI),OVCAR-3,inactive
same,growth inhibition (GI),NCI-H460,inactive
same,growth inhibition (GI),SN12C,inactive
same,growth inhibition (GI),SR,inactive
same,growth inhibition (GI),786-0,inactive
same,growth inhibition (GI),MDA-MB-468,inactive
same,growth inhibition (GI),UACC-62,inactive
same,growth inhibition (GI),HOP-92,inactive
same,growth inhibition (GI),OVCAR-4,inactive
same,growth inhibition (GI),MCF7,inactive
same,growth inhibition (GI),MOLT-4,inactive
same,growth inhibition (GI),KM12,inactive
same,growth inhibition (GI),K562,inactive
same,growth inhibition (GI),HT-29,inactive
same,growth inhibition (GI),SK-MEL-5,inactive
same,growth inhibition (GI),Malme-3M,inactive
same,growth inhibition (GI),UACC-257,inactive
same,zone of inhibition at 200 µg/disc,Bacillus subtilis,8 mm
same,growth inhibition (GI),BT-549,inactive
same,growth inhibition (GI),SNB-19,inactive
same,growth inhibition (GI),A498,inactive
same,growth inhibition (GI),SNB-75,inactive
same,growth inhibition (GI),SF-295,inactive
same,growth inhibition (GI),CCRF-CEM,inactive
same,growth inhibition (GI),U-251,inactive
same,growth inhibition (GI),PC-3,inactive
same,zone of inhibition at 200 µg/disc,Candida albicans,8 mm
same,zone of inhibition at 200 µg/disc,Staphylococcus aureus,8 mm
same,growth inhibition (GI),MDA-MB-435,inactive
same,growth inhibition (GI),M14,inactive
same,growth inhibition (GI),Hs-578T,inactive
same,growth inhibition (GI),CAKI-1,inactive
same,growth inhibition (GI),ACHN,inactive
same,growth inhibition (GI),HCT-116,inactive
same,growth inhibition (GI),RXF 393,inactive
same,zone of inhibition at 200 µg/disc,Pseudomonas aeruginosa,8 mm
same,growth inhibition (GI),HCT-15,inactive
same,growth inhibition (GI),A549,inactive
same,IC50,Dihydrofolate reductase,8 µM
same,growth inhibition (GI),COLO 205,inactive
same,growth inhibition (GI),OVCAR-5,inactive
same,growth inhibition (GI),OVCAR-8,inactive
same,growth inhibition (GI),SW-620,inactive
same,growth inhibition (GI),SF-539,inactive
same,growth inhibition (GI),HL-60(TB),inactive
same,growth inhibition (GI),LOX IMVI,inactive
Cc1nc(N)sc1Sc1nc2ccc(Cl)cc2c(=O)n1-c1ccccc1,inhibition of growth at 10 µM,[1],32.6%
same,inhibition of growth at 10 µM,T47D; read-out: GI,14.3%
same,zone of inhibition at 200 µg/disc,Escherichia coli,8 mm
same,inhibition of growth at 10 µM,MCF7,18%
same,zone of inhibition at 200 µg/disc,Bacillus subtilis,8 mm
same,zone of inhibition at 200 µg/disc,Candida albicans,8 mm
same,zone of inhibition at 200 µg/disc,Staphylococcus aureus,8 mm
same,zone of inhibition at 200 µg/disc,Pseudomonas aeruginosa,8 mm
same,IC50,Dihydrofolate reductase,5 µM
COc1cc2nc(Sc3sc(N)nc3C)n(-c3ccccc3)c(=O)c2cc1OC,inhibition of growth at 10 µM,[1],32.3%
same,inhibition of growth at 10 µM,"NCI-H522; NCI-H522, 48 h, read-out: GI",25.6%
same,zone of inhibition at 200 µg/disc,Escherichia coli,8 mm
same,inhibition of growth at 10 µM,SR; read-out: GI,15%
same,inhibition of growth at 10 µM,MCF7,21.7%
same,zone of inhibition at 200 µg/disc,Bacillus subtilis,8 mm
same,zone of inhibition at 200 µg/disc,Candida albicans,8 mm
same,zone of inhibition at 200 µg/disc,Staphylococcus aureus,8 mm
same,zone of inhibition at 200 µg/disc,Pseudomonas aeruginosa,8 mm
same,IC50,Dihydrofolate reductase,7 µM
Nc1nnc(Sc2nc3ccc(Cl)cc3c(=O)n2-c2ccc(Oc3ccccc3)cc2)s1,inhibition of growth at 10 µM,[1],17%
same,zone of inhibition at 200 µg/disc,Escherichia coli,8 mm
same,zone of inhibition at 200 µg/disc,Bacillus subtilis,8 mm
same,zone of inhibition at 200 µg/disc,Candida albicans,8 mm
same,zone of inhibition at 200 µg/disc,Staphylococcus aureus,8 mm
same,zone of inhibition at 200 µg/disc,Pseudomonas aeruginosa,8 mm
same,IC50,Dihydrofolate reductase,0.4 µM
same,inhibition of growth at 10 µM,"HL-60(TB); HL-60, 48 h, read-out: GI",12%
COc1ccc(-n2c(Sc3nnc(N)s3)nc3cc(OC)c(OC)cc3c2=O)cc1,zone of inhibition at 200 µg/disc,Escherichia coli,8 mm
same,inhibition of growth at 10 µM,[2],33.7%
same,zone of inhibition at 200 µg/disc,Bacillus subtilis,8 mm
same,zone of inhibition at 200 µg/disc,Candida albicans,8 mm
same,zone of inhibition at 200 µg/disc,Staphylococcus aureus,8 mm
same,zone of inhibition at 200 µg/disc,Pseudomonas aeruginosa,8 mm
same,IC50,Dihydrofolate reductase,7 µM
COc1cc2nc(Sc3nnc(N)s3)n(-c3ccccc3)c(=O)c2cc1OC,inhibition of growth at 10 µM,[1],14.2%
same,zone of inhibition at 200 µg/disc,Escherichia coli,8 mm
same,inhibition of growth at 10 µM,"MDA-MB-468; MDA-MB-468, 48 h, read-out: GI",10.4%
same,inhibition of growth at 10 µM,[2],15.4%
same,zone of inhibition at 200 µg/disc,Bacillus subtilis,8 mm
same,inhibition of growth at 10 µM,[3],10.6%
same,inhibition of growth at 10 µM,[4],10.9%
same,zone of inhibition at 200 µg/disc,Candida albicans,8 mm
same,zone of inhibition at 200 µg/disc,Staphylococcus aureus,8 mm
same,zone of inhibition at 200 µg/disc,Pseudomonas aeruginosa,8 mm
same,IC50,Dihydrofolate reductase,10 µM
